In patent US20100166859A1, “NOVEL NUTRACEUTICAL COMPOSITIONS AND USE THEREOF” (priority 2006, published 2010):
Where a SMILES comes first, the peptide text is derived from it. [ ]: non-standard residue; d: D form. ξ: configuration not given here. ξP = O=C(O)C1CCCN1

How the values were obtained:
[1] = target: glycine co-agonist site on the NMDA receptor (Rattus norvegicus, UniProt P35439); assay: [3H] MDL-105519 radioligand binding assay, glycine co-agonist site of the NMDA receptor; conditions: displacement of 0.33 nM [3H] MDL-105519, rat cerebral cortex membranes
Procedure: Polypeptides or amino acid compositions of the instant invention were tested for the ability to bind to the glycine co-agonist site on the NMDA receptor using a previously validated [3H] MDL-105519 radioligand binding assay (see, for example Siegel B W, Sreekrishna K, Baron B M. Eur J Pharmacol. 1996 Oct. 3; 312(3):357-65). Upon binding, the peptide is displacing the parent radioligand from the NR1a binding site of the NMDA receptor. Binding inhibition of 50% or more is generally considered as significant.
Crude synaptic membranes used in the assay were prepared using rat cerebral cortex tissue (male Wistar rats) and extensively washed using the procedures described previously (Haring et al., 1991, J. Neurochem. 57:323-331). Briefly, tissue which has been stored at −80° C. was homogenized in ice-cold 5 mM Tris (pH 7.4) using a Polytron and then pelleted by centrifugation at 48,000 g for 20 minutes. The resulting supernatant was discarded, and the membranes washed three times in cold buffer. […]
Frozen pellets were thawed at room temperature and washed three times by resuspension in 50 mM Tris-acetate (pH 7.4) and centrifugation. […] Non-specific binding was determined using 10 μM unlabelled MDL-105519. […]
(§1) Assay results are presented as the % inhibition of specific binding. […] Semi-quantitative follow-up to estimate IC50 was done in duplicates at the indicated peptide concentrations.

AMPA receptor [2] = assay: [3H] AMPA radioligand binding assay; conditions: displacement of 5 nM [3H] AMPA, rat cerebral cortex membranes, 25° C., 90 min; semi-quantitative, duplicates
Procedure: Polypeptides or amino acid compositions of the instant invention were tested for the ability to bind to the AMPA receptor using a previously validated [3H] AMPA radioligand to binding assay (see, for example Olsen R W, Szamraj O, Houser C R Brain Res. 1987; 402(2):243-54.). Upon binding, the peptide is displacing the parent radioligand from the glutamate binding site of the AMPA receptor. Binding inhibition of 50% or more is generally considered as significant.
The membrane has been prepared as described in example 1.
Frozen pellets were thawed at room temperature and washed three times by resuspension in 50 mM Tris-acetate (pH 7.4) and centrifugation. Final pellets were suspended at concentrations of 2 to 3 mg/ml in 50 mM Tris-HCl (pH 7.4, 200 mM KSCN). Binding reactions were initiated by the addition of 200 μg of freshly prepared membranes to reaction mixtures (about 1 ml final volume) containing 5 nM [3H] AMPA at 25° C. in the presence of a range of peptide concentrations (0.5 μM, 1 μM, 10 μM, 100 μM and 200 μM). Incubation time was 90 min. Non-specific binding was determined using 1000 μM unlabelled L-Glutamic acid. […]
as §1

AMPA receptor [3] = assay: Whole cell patch-clamp on CA1 pyramidal cells in brain slices, synaptic AMPA responses; format: cell-based, C57BL/6 mice
Procedure: Whole cell patch-clamp experiments were performed in parasagital brain slices on CAI pyramidal cells. The animals used for this study were C57BL/6 mice. After decapitation of the mice brains were quickly removed and placed in aerated (95% O2, 5% CO2) artificial cerebrospinal fluid (ASCF) solution at 4° C. The ACSF solution was composed of (mM): 124 NaCl, 2.5 KCl, 1.3 MgCl2, 26 NaHCO3, 1.25 NaH2PO4, 2.5 CaCl2 […] Synaptic AMPA responses were evoked every 10 seconds with a bipolar platinum electrode and recorded in the voltage clamp configuration with 4-5 MΩ patch pipette at a holding potential of −60 mV. Baseline recordings were performed with 100 μM picrotoxin in the ACSF. After establishing a stable synaptic AMPA response the tripeptide EPP (140 μM) was added to the bath, continuing the recording for an additional 20 to 30 minutes. At the end of every experiment NBQX (20 μM) was bath applied to block the AMPA response. The residual trace was subtracted from the previous recordings to show only the AMPA current. […]
Parameters measured to estimate the action of EPP were the holding current, amplitude, and initial slope of the AMPA responses. Additionally the amplitude ratio and initial slope ratio of the two AMPA responses from the paired pulse experiments was determined.

## O=C(O)/C(=C/c1c(C(=O)O)[nH]c2cc(Cl)cc(Cl)c12)c1ccccc1 [MDL-105519, reference compound]
[1]; reference compound
  IC50: 0.0096 µM

## NC(CCC(=O)O)C(=O)N1CCCC1C(=O)N1CCCC1C(=O)O (stereo not drawn) [EPP] (H-Glu-Pro-Pro-OH; configuration not given here)
AMPA receptor [2]
  IC50: 14 µM
AMPA receptor [3]; 140 μM EPP in bath, baseline −83.9±14.1 pA, p<0.05, holding potential −60 mV
  amplitude of the first synaptic AMPA response: −130.6±22.6 pA
AMPA receptor [3]; 140 μM EPP versus baseline, p=0.06
  change in slope of the AMPA response: just failed to reach significance

## NCC(=O)NCC(=O)N1CCCC1C(=O)O (stereo not drawn) [GGP] (H-Gly-Gly-[ξP]-OH)
[1]; 4° C., 30 min, semi-quantitative, duplicates
  IC50: 11.3 µM
